In US10857180B2, “Pharmaceutical composition for improving health, cure abnormalities and degenerative disease, achieve anti-aging effect of therapy and therapeutic effect on mammals and method thereof” (priority 2014, dated 2020):

Columns and labels:
A-549 cell line [1] = assay: Scratch assay, A-549 cells; settings: for time of restoration of the cell monolayer: dose not stated, 24 hours in the control; for restoration of the cell monolayer after 72 hours: ^64Zn 20 and 30 mcg/ml, ^39K 2 mg/ml, control restored after 24 hours
[2] = test system: human colon adenocarcinoma (COLO 205 line) cells; assay: Immunocytochemistry (H-Score) of COLO 205 cells; assay type: cell-based
Procedure: (§1) When making the immunocytochemistry (ICC) assay, cells on microscope glasses (cytospin preparations) were fixed in the solution (methanol+acetone 1:1) for 2 hours at t 20° C. and incubated with 1% solution of bovine serum albumin (BSA) for 20 minutes. Then the monoclonal antibodies-CD44 (Diagnostic BioSystems), E-cadherin (ThermoScientific), N-cadherin (NeoMarker, BioLegend), SLUG (GeneTex)—were applied for the time period specified by the manufacturer (30 to 60 minutes), after which the Poly Vue imaging system conjugated with peroxidase was used and the enzyme activity was detected using diaminobenzidine (ThermoScientific) as a substrate. After the immunocytochemical reaction the preparations were washed with water and counterstained with hematoxylin-eosin (for 15 to 30 seconds).
(§2) The results were analyzed by counting cells with expression (brown colored cells) using a light microscope, and were assessed using the classical H-Score method: S=1×A+2×B+3×C, where S is the H-Score index giving a range of 0 (protein is not detected) to 300 (high-level expression in 100% of the cells); A is the percentage of weakly staining cells, B is the percentage of moderately staining cells and C is the percentage of strongly staining cells.

[3] = test system: normal rat kidney cells (NRK cell line); assay: Effect on normal rat kidney cells versus Doxorubicin
From the text: An immortalized cell line is a stable, capable of unlimited proliferation cell line that consists of cells with […] in culture.

[4] = test system: Burkitt lymphoma (Namalwa line) cells; assay: Immunocytochemical analysis (H-Score) of Namalwa cells; assay type: cell-based, human; settings: for amount of N-cadherin-positive cells: exception ^39K 2 mg/ml and ^24Mg 2 mg/ml
From the text: (§3) However, articles about an important role of EMT in the study of lymphomas and leukemias as well have started coming out recently, which is an interesting stage in the research into the tumor process as a whole, since these tumors radically differ from “usual solid neoplasias” in their histogenesis and, accordingly, in their phenotypic characteristics. Thus, such comprehensive research into adhesion proteins and cell cytoskeleton in the tumor cells of Burkitt lymphoma and acute promyelocyte leukemia after the action of the group of components under study is a relevant and contemporary attempt of a deeper analysis of the modification of a cell phenotype of tumor cells in order to assess changes in the degree of their malignancy. Materials and methods for leukemia cell lines HL-60 and Namalva and cell culture conditions will now be described. […] The first plate was for coloring cells with trypan blue and the second one was for the MTT assay.
Initial concentrations of the components.
After preparation of the corresponding concentrations of the components, they were introduced into appropriate wells of the plate in which HL-60 or Namalva cell were in complete medium. The volume of the culture medium with cells was 100 mcl per well and the concentration of cells in the suspension was 3×10^5 cells/ml (3×10^6/plate). After the components were placed into the wells, the final concentration (component+cells in the suspension) became smaller and corresponded to the values given in the Table of Concentration Characteristics.
After the incubation the medium was removed from the wells and the formed tetraformazan crystals were dissolved in 50 mcl of dimethylsulphoxide (Applichem, Germany). The results were fixed using a multi-well spectrophotometer with an excitation wave length of 540 nm. The percent of inhibition of cell viability was calculated using the following formula: IR=(1−A 540 (experiment)/A540 (control))×100%. In carrying out the immunocytochemical (ICC) assay, cells on microscope glasses (cytospin preparations) were fixed in the solution (methanol+acetone (1:1)) for 2 hours at t−20° C. and then incubated with a 1% solution of bovine serum albumin (BSA) for 20 minutes.
Then such monoclonal antibodies as CD44, N-cadherin, ICAM and IgM were applied for the period of time specified in the manufacturer's instructions (30 to 60 minute time intervals), after which Poly Vue imaging system conjugated with peroxidase was used and the enzyme activity was detected using diaminobenzidine (ThermoScientific) as a substrate. After the immunocytochemical reaction, the preparations were rinsed with water and counterstained with hematoxylin and eosin for 15 to 30 seconds. The results were analyzed by a quantitative estimation of cells with the marker expression (increased brown color of cells corresponded to a higher degree of expression of the marker) using a light microscope and assessed using the classical H-Score method: S=1×A+2×B+3×C, where S is the H-Score index the values of which are within the scope of 0 (protein is not detectable) to 300 (high-level expression in 100% of the cells), A is a percentage of weakly stained cells, B is the percentage of moderately stained cells, and C the percentage of strongly stained cells.

HL-60 cells = assay: Morphological and growth characteristics of HL-60 cells; assay type: cell-based, human; settings: sulfates, living cell culture
From the text: as §3
After preparation of the corresponding concentrations of the components, they were introduced into appropriate wells of the plate in which HL-60 or Namalva cell were in complete medium. The volume of the culture medium with cells was 100 mcl per well and the concentration of cells in the suspension was 3×10^5 cells/ml (3×10^6/plate). […]

[5] = test system: normal rat kidney cells (NRK cell line); assay: Scratch assay, NRK cells; assay type: cell-based; settings: various doses; as in the control
Procedure: The cells of A-549, A-431, NRK, HaCaT, MM-4, normal fibroblasts (derived from the Bank of Cell Lines from human and animal tissues, R. E. Kavetsky Institute of Experimental Pathology, Oncology and Radiobiology, National Academy of Sciences of Ukraine) were cultured in complete culture medium RPMI 1640/DMEM (PAA, Austria) (depending on the cell type) supplemented with 10% fetal calf serum (PAA, Austria) and incubated in 5% CO2 humidified atmosphere at 37° C. The culture medium was replaced in 2 to 3 days and the cells were passaged in 4 to 5 days.
Analysis of the influence of the components under study on the cell migration rate was performed using the scratch assay method. Cells (5×10^4/well) were seeded into the wells of a 12-well plate in 2 repeats in RPMI-1640/DMEM culture medium supplemented with 10% PBS, 40 mcg/ml of gentamicin and incubated in 5% CO2 humidified atmosphere at 37° C. for 24 hours.
The plate was incubated in a CO2 incubator for additional 48 hours. After the cells formed a dense monolayer it was damaged (by making a “scratch”) and the growth medium was replaced to remove cell debris and smooth the edges of the “scratch.” The rate of cell migration was analyzed using an inverted microscope and by photographing cells in the area of injury. The migration activity of cells was fixed at several time points (depending on the cell line analyzed). The microphotomicrographs were analyzed and the cell incubation time needed to restore the monolayer was determined for all experimental groups.

[6] = test system: A-549 cell line (human lung cancer); assay: Type A cell transformation of A-549 cells, effect of solution storage; assay type: cell-based
Procedure: Alluding to the above, the effect of accumulation of antitumor properties of light isotopes containing materials on A-549 tumor cell line will now be discussed. When working with the preparations under study, it was noted that the functional activity of certain doses of the components increased over time after preparation of the solution and its subsequent storage at t+4° C. […] The preparation was stored at the temperature of […].

A-549 cell line [7] = assay: Cytogenetic analysis (micronucleus test) of A-549 cells; assay type: cell-based, human; settings: for increase of cells with protrusions: A-549
Procedure: Advanced Micronucleus Test was used to assess the cytogenetic characteristics of cells after their exposure to the action of the test group of components.
Cytogenetic analysis was carried out after 48 hours of exposure of the cells to the action of the components. For cytogenetic analysis, the cells were incubated in hypotonic solution KCl (0.54%) (Reahim, Ukraine) for 40 minutes at +37° C. Then they were fixed with a mixture of methyl alcohol (Reahim, Ukraine) and acetic acid (Himlaborreaktiv, Ukraine) (3:1) with replacing the fixative three times. All fixed cell suspensions were applied on cold wet glasses, dried and stained with Giemsa stain (Sigma, Germany). The cytogenetic preparations were analyzed using a binocular microscope Sari Zeiss, AxioStarPlus (Germany) with magnification of x 1000. The following quantitative characteristics and stages of cell division were analyzed on the preparations: mitoses, cells with premature chromosome condensation (PCC), cells with micronuclei (CMN), apoptotic cells and cells with nuclear protrusions (protrusions) which were calculated for 1000 cells and expressed in per mille (%).

[8] = test system: human non-small cell lung cancer (line A-549) cells; assay: Immunocytochemistry (H-Score) of A-549 cells; assay type: cell-based
Procedure: as §1, §2

In the case of `O=S(=O)([O-])[O-].[24Mg+2]` [^24Mg], the “time of restoration of the cell monolayer” value (shortened to “time … of the cell monolayer”) (A-549 cell line [1]) is reported as 72 h, the “number of E-cadherin-positive cells” value [2] is reported as “increasing the number” and the “slug transcription factor expression” value [2] is reported as “in the cytoplasm and in the nucleus”. For the same molecule, the “effect on functional properties of NRK cells” value [3] was “did not affect functional properties”, the “IgM marker expression level” value [4] was “decrease in the expression level” and the “amount of N-cadherin-positive cells” value [4] was “in most cases increased”. The “morphological and growth characteristics (adhesion)” value (HL-60 cells) was “significant enhancement of adhesion of cells to the substrate”.

In the case of `[39K+].[Cl-]` [^39K], the “restoration of the cell monolayer after 72 hours” value (A-549 cell line [1]) is reported as “incomplete”, the “time … of the cell monolayer” value (A-549 cell line [1]) is reported as 72 h and the “number of E-cadherin-positive cells” value [2] is reported as “significantly increased”. The “slug transcription factor expression” value [2] was “increased its expression in the cytoplasm”, the “E-cadherin, H-Score scale” value ([2]; 87 in the control) was 184 and the “time of restoration of the damaged monolayer” value [5] was 30 h. For the same molecule, the “IgM marker expression level” value [4] was “decrease in the expression level”, the “expression of CD44 marker” value [4] was “significant inhibition” and the “amount of N-cadherin-positive cells” value [4] was “in most cases increased”. The “transformation of initial tumor cells to cells of type A” value ([6]; ^39K 0.4 mg/ml, in both cases) was 100%, the “transformation of initial tumor cells to cells of type A” value ([6]; ^39K 10 mg/ml) was “no transformational effect was found” and the “number of cells of type A after 20 days of storage vs first day” value ([6]; ^39K sulphate form 2 mg/ml) was 2 fold. The “increase of cells with protrusions” value (A-549 cell line [7]) was 15 fold, the “number of slug-positive cells with nuclear expression” value [8] was “significantly decreased” and the “number of cells with E-cadherin” value ([8]; dose of IC50) was “inhibition”.

With `O=S(=O)([O-])[O-].[64Zn+2]` [^64Zn] the “restoration of the cell monolayer after 72 hours” value (A-549 cell line [1]) was “incomplete”, the “time … of the cell monolayer” value (A-549 cell line [1]) was 72 h and the “number of E-cadherin-positive cells” value [2] was “significantly increased”. For the same molecule, the “slug transcription factor expression” value [2] was “in the cytoplasm and in the nucleus”, the “time of restoration of the damaged monolayer” value [5] was 30 h and the “effect on functional properties of NRK cells” value [3] was “did not affect functional properties”. For the same molecule, the “IgM marker expression level” value [4] was “decrease in the expression level”, the “expression of CD44 marker” value [4] was “significant inhibition” and the “number of ICAM-positive cells, H-Score method” value ([4]; ^64Zn as sulfate 5 mcg/ml) was 210. The “amount of N-cadherin-positive cells” value [4] was “in most cases increased”, the “cells of type A” value ([6]; ^64Zn sulphate, after 28 days) was “About 50%” and the “morphological and growth characteristics (adhesion)” value (HL-60 cells) was “significant enhancement of adhesion of cells to the substrate”. For the same molecule, the “increase of cells with protrusions” value (A-549 cell line [7]) was roughly 10 fold, the “level of nuclear abnormalities vs control” value (A-549 cell line [7]; ^64Zn 20 mcg/ml, 48 hours) was “fifty times as high as the baseline” and the “level of nuclear abnormalities vs dose of 10 mcg/ml” value (A-549 cell line [7]; ^64Zn 20 mcg/ml, 48 hours) was “triple increase”. For the same molecule, the “slug-positive cells with cytoplasmic expression” value [8] was “decrease”.
